The values that follow come from article PMC4354951 (European journal of medicinal chemistry, 2008).

Values joined by “and” are separate entries in the source; they are usually repeats but may differ in a detail not shown here. Equal values may be shown once. “Also recorded” adds a separate entry of the source.

Data set [1] in a line: Chemical hydrolysis under gastric juice-like conditions. The data set is classed as physicochemical.
Data set [2] addresses T1, human NTPDase1 (Homo sapiens, UniProt P49961).
T1 sequence (P49961 1-510): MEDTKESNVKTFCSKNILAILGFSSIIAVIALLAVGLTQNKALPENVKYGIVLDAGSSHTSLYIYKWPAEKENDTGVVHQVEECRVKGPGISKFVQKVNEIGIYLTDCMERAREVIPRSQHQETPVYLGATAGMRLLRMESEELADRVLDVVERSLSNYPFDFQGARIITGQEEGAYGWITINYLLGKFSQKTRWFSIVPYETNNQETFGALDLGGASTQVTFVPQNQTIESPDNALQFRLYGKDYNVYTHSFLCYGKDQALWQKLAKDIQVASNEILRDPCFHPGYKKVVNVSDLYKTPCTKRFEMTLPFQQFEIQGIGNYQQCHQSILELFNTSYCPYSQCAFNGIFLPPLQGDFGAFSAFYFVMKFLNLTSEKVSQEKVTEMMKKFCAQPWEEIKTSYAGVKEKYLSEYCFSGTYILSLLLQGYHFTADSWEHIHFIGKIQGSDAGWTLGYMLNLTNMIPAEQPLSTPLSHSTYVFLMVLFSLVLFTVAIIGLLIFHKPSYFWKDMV
As to the kind of experiment: Hydrolysis by NTPDase1. The format is biochemical. The note with it: 100 μM substrate; relative to ATP hydrolysis (100%).

The target of data set [3] is T2, human NPP3 (Homo sapiens, UniProt O14638).
T2 sequence (O14638 1-875): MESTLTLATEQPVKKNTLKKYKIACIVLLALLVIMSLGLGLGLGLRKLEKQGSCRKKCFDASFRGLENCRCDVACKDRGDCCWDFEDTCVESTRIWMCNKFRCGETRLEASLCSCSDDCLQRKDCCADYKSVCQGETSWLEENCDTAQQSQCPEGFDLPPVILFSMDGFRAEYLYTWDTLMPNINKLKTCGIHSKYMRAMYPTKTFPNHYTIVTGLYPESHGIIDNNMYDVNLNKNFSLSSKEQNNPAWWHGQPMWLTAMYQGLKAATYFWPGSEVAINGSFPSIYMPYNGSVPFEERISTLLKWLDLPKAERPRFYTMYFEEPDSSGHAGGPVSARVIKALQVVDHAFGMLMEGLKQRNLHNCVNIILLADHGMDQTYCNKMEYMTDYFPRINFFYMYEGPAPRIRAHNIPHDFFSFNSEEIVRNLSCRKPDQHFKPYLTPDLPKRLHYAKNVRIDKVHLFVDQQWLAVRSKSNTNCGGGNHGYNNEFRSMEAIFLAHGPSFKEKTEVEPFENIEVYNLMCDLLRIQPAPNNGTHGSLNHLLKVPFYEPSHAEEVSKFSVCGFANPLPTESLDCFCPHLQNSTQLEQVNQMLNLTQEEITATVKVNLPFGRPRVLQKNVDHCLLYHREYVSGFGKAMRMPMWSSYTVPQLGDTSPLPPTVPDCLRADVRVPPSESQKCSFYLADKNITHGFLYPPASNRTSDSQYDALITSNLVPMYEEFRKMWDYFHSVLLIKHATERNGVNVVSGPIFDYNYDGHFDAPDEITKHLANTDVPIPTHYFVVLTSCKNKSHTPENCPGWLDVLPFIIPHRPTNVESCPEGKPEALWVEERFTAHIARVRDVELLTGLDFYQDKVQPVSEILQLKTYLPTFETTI
As to the kind of experiment: Hydrolysis by NPP3. Particulars: 100 μM substrate; relative to pnp-TMP hydrolysis (100%). The format is biochemical.

Data set [4] has as its target human P2Y2 receptor (Homo sapiens, UniProt P41231). As to the kind of experiment: Increase in [Ca2+]i in 1321N1 astrocytoma cells expressing P2Y2 receptor. The format is cell-based. The note with it: 1321N1 cell transfectants; for EC50: read-out: EC50 of analogue-induced increase in [Ca2+]i, P2Y2.
A short description of data set [5]: Stability in human blood serum, Method B. Particulars: Method B; 37 °C, up to 144 h.

human P2Y2 receptor, sequence (P41231 whole entry): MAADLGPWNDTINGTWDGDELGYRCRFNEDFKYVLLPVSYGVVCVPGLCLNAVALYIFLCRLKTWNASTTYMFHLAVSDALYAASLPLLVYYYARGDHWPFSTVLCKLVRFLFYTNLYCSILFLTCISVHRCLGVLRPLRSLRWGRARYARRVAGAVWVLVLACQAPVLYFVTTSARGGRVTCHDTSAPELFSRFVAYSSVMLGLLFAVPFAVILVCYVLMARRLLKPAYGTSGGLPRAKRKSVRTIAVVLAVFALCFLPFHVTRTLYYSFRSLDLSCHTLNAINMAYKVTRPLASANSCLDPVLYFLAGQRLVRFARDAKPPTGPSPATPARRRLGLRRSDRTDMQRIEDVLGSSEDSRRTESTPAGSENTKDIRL

`[BH3-][P+](O)(OC[C@H]1O[C@@H](n2cnc3c(N)ncnc32)[C@H](O)[C@@H]1O)OP(=O)(O)CP(=O)(O)O` (single isomer, unassigned) [3B, Adenosine-5′-O-(α-boranotriphosphate)-β,γ-CH2] registered a fraction degraded in data set [1] (0.2 M HCl/KCl pH 1.4, 37 °C, after 19 h) of 50%. Further, the “t1/2 of acidic hydrolysis” value in data set [1] (KCl/HCl buffer pH 1.4, 37 °C, 31P NMR (2) or HPLC-MS (3B, 4B)) is on record as 19 h. The “Relative activity of NTPDase1” value in data set [2] is given as 0%. For the same molecule, the “Relative activity of NPP3” value in data set [3] was 3.0 ± 0.05%. Moreover, in data set [4], the “agonist activity at P2Y2R” value is on record as “insignificant activities” and the EC50 is above 100 µM.
As for `[BH3-][P+](O)(OC[C@H]1O[C@@H](n2cnc3c(N)nc(SC)nc32)[C@H](O)[C@@H]1O)OP(=O)(O)CP(=O)(O)O` (single isomer, unassigned) [4A, 2-MeS–adenosine-5′-O-(α-boranotriphosphate)-β,γ-CH2], in data set [2], the “Relative activity of NTPDase1” value is on record as below 1%. Besides, the “Relative activity of NPP3” value in data set [3] is 10% and 9.9 ± 0.5%. In data set [4], the “agonist activity at P2Y2R” value is listed as “insignificant activities; also recorded: inactivity” and the EC50 was above 100 µM. In addition, the “resistance to enzymatic hydrolysis in human blood serum” value in data set [5] is listed as “completely resistant to enzymatic hydrolysis for at least 6 days”.
`[BH3-][P+](O)(OC[C@H]1O[C@@H](n2cnc3c(N)ncnc32)[C@H](O)[C@@H]1O)OP(=O)(O)CP(=O)(O)O` (single isomer, unassigned) [3A, Adenosine-5′-O-(α-boranotriphosphate)-β,γ-CH2]: the “Relative activity of NTPDase1” value in data set [2] is on record as 1.0 ± 2.1%. Also, the “Relative activity of NPP3” value in data set [3] was 0%. Further, in data set [4], the “agonist activity at P2Y2R” value is on record as “insignificant activities” and the concentration giving a half-maximal response (EC50) was above 100 µM.
